For one test, the target named is human DPP1 enzyme (Homo sapiens, UniProt P53634). The test can be described thus: Human DPP1 Enzyme IC50 Assay. The test is classed as biochemical. Set-up: was first proteolytically processed into its mature form using recombinant human cathepsin L; purchased R&D Systems. In outline: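 Recombinant human DPP1, pre-activated with cathepsin L (pH 4.5), was preincubated with compound 10 min at 37 °C in MES pH 6.0, 50 mM NaCl, 5 mM DTT, 1% DMSO. Cleavage of 400 μM (final) H-Gly-Arg-AMC followed by fluorescence (350/450 nm) over 90 min at 37 °C; IC50 from four-parameter logistic fit versus no-compound control.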

A further test concerns the target DPP1 in HL-60 cells (Homo sapiens, UniProt P53634). The test can be described thus: DPP1 Cell IC50 assay. It is filed as cell-based. Set-up: host or cells: HL-60 cells. Particulars: 60 min pre-incubation, H-Gly-Phe-AFC substrate, average of n runs. In a few lines:
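HL-60 cells in PBS (5×10^5 live cells per mL) pre-incubated with compound (0.5% DMSO) 60 min at 37° C, 5% CO2, then H-Gly-Phe-AFC substrate (500 μM stock) added for 30 min. Fluorescence at 400/505 nm; % inhibition vs vehicle wells, IC50 from four-parameter logistic fit.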

The mark [1] stands for this setting: activated recombinant human DPP1, 400 μM H-Gly-Arg-AMC, 10 minutes pre-incubation at 37° C., pH 6.0, average of n runs, read-out: Avg. IC50 (Human DPP1 enzyme IC50 value ranges).
[2] abbreviates: read-out: Avg. IC50 (DPP1 Cell IC50 value ranges).

Like-named read-outs stand apart in the source and are kept apart here.

By IC50 is commonly meant the concentration that inhibits the measured activity by half.

human DPP1 enzyme, sequence (P53634 25-134 limits assumed): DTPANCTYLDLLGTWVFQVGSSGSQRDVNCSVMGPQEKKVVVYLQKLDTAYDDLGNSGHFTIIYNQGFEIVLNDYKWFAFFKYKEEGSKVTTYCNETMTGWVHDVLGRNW
human DPP1 enzyme, sequence (P53634 231-394 limits assumed): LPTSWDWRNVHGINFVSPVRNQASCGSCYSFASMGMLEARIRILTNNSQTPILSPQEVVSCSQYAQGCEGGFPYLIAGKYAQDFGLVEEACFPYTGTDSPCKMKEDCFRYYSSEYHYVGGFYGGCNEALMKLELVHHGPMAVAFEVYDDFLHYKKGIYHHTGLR
human DPP1 enzyme, sequence (P53634 395-463 limits assumed): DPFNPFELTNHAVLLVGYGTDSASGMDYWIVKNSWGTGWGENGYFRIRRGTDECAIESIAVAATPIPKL
DPP1 in HL-60 cells, sequence (P53634 25-463): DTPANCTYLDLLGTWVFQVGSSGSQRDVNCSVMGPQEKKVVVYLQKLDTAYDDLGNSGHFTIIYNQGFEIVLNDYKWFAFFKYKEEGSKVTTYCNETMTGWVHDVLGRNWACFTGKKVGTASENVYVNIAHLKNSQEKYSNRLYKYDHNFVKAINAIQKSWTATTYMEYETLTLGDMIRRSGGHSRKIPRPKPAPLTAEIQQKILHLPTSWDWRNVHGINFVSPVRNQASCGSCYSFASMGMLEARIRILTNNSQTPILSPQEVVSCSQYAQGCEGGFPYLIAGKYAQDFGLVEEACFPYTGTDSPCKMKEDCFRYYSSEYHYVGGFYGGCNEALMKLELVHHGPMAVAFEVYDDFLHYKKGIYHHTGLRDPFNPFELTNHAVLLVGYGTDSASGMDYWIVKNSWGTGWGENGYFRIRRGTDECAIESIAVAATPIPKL

As to `N#C[C@@H](Cc1cc2c(cc1F)-c1cc(C3COC3)c(F)cc1CO2)NC(=O)[C@@H]1CNCCCCO1` [Compound B10-A], the figures for the IC50 on human DPP1 enzyme (setting [1]) and at DPP1 in HL-60 cells (setting [2]) were > 15 nM and > 2.5 nM, respectively.

Regarding `CO[C@@H]1CCNC[C@@H](C(=O)N[C@H](C#N)Cc2cc3c(cc2F)-c2cc(C4COC4)c(F)cc2CO3)OC1` [Compound B12, (2S,7R)—N-{1-cyano-2-[2,8-difluoro-9-(oxetan-3-yl)-6H-benzo[c]chromen-3-yl]ethyl}-7-methoxy-1,4-oxazocane-2-carboxamide], the IC50 at human DPP1 enzyme (setting [1]) is < 5 nM; on DPP1 in HL-60 cells (setting [2]), 1 to 2.5 nM.

Regarding `N#C[C@H](Cc1cc2c(cc1F)-c1ccc(F)cc1CO2)NC(=O)[C@@H]1CNCCCO1` [Compound B35], the IC50 at human DPP1 enzyme is > 15 nM; against DPP1 in HL-60 cells (Avg. IC50 (DPP1 Cell IC50 value ranges)), > 2.5 nM.

As for `Cn1c(=O)oc2cc3c(cc21)-c1cc(F)c(CC(C#N)NC(=O)[C@@H]2CNCCCO2)cc1OC3` (stereo partly drawn) [Compound C1, (2S)—N-(1-cyano-2-{4-fluoro-15-methyl-14-oxo-8,13-dioxa-15-azatetracyclo[8.7.0.0^{2,7}0.0^{12,16}]heptadeca-1(10),2(7),3,5,11,16-hexaen-5-yl}ethyl)-1,4-oxazepane-2-carboxamide], the figures for the IC50 at human DPP1 enzyme (setting [1]) and on DPP1 in HL-60 cells (setting [2]) were < 5 nM and > 2.5 nM, respectively.

Take `Cn1c(=O)oc2cc3c(cc21)-c1cc(F)c(C[C@H](C#N)NC(=O)[C@@H]2CNCCCO2)cc1OC3` [Compound C1-A]: the IC50 on human DPP1 enzyme (setting [1]) was > 15 nM; at DPP1 in HL-60 cells (setting [2]) it was > 2.5 nM.

Take `Cn1c(=O)oc2cc3c(cc21)-c1cc(F)c(C[C@@H](C#N)NC(=O)[C@@H]2CNCCCO2)cc1OC3` [Compound C1-B]: the figures for the IC50 at human DPP1 enzyme (setting [1]) and at DPP1 in HL-60 cells (setting [2]) were < 5 nM and 1 to 2.5 nM, respectively.

Take `Cn1c(=O)oc2ccc3c(c21)COc1cc(C[C@@H](C#N)NC(=O)[C@@H]2CNCCCO2)c(F)cc1-3` [Compound C2-A]: the IC50 at human DPP1 enzyme (setting [1]) is > 15 nM; at DPP1 in HL-60 cells (setting [2]) it was 1 to 2.5 nM.

Consider `Cn1c(=O)oc2cc3c(cc21)-c1cc(F)c(CC(C#N)NC(=O)[C@@H]2CNCCCCO2)cc1OC3` (stereo partly drawn) [Compound C5, (2S)—N-[(1S)-1-cyano-2-{4-fluoro-15-methyl-14-oxo-8,13-dioxa-15-azatetracyclo[8.7.0.0^{2,7}0.0^{12,16}]heptadeca-1(10),2,4,6,11,16-hexaen-5-yl}ethyl]-1,4-oxazocane-2-carboxamide], for which the values for the IC50 on human DPP1 enzyme (setting [1]) and at DPP1 in HL-60 cells (setting [2]) were < 5 nM and 1 to 2.5 nM, respectively.

Take `Cc1cn2c3c(cc2c(C)n1)-c1cc(F)c(C[C@@H](C#N)NC(=O)[C@@H]2CNCCCO2)cc1OC3` [Compound C10]: the IC50 at human DPP1 enzyme (setting [1]) is > 15 nM; on DPP1 in HL-60 cells (setting [2]) it was 1 to 2.5 nM.

For the compound `Cn1ncc2cc3c(cc21)-c1cc(F)c(C[C@@H](C#N)NC(=O)[C@@H]2CNCCCO2)cc1OC3` [Compound C33], the IC50 at human DPP1 enzyme (setting [1]) is < 5 nM; on DPP1 in HL-60 cells (setting [2]), 1 to 2.5 nM.

On to `Cn1nnc2cc3c(cc21)-c1cc(F)c(C[C@@H](C#N)NC(=O)[C@@H]2CNCCCO2)cc1OC3` [Compound C34], for which the IC50 at human DPP1 enzyme (setting [1]) is < 5 nM; at DPP1 in HL-60 cells (setting [2]) it was 1 to 2.5 nM.

In the case of `N#C[C@H](Cc1ccc(-c2ccc(-c3nnc(N)s3)o2)cc1)NC(=O)[C@@H]1CNCCCO1` [Compound D1, (2S)—N-[(1S)-2-{4-[5-(5-amino-1,3,4-thiadiazol-2-yl)furan-2-yl]phenyl}-1-cyanoethyl]-1,4-oxazepane-2-carboxamide], the IC50 at human DPP1 enzyme (setting [1]) was > 15 nM; at DPP1 in HL-60 cells (setting [2]), > 2.5 nM.

Turning to `N#C[C@H](Cc1ccc(-c2csc(-c3nnc(N)o3)c2)cc1)NC(=O)[C@@H]1CNCCCO1` [Compound D2, (2S)—N-[(1S)-2-{4-[5-(5-amino-1,3,4-oxadiazol-2-yl)thiophen-3-yl]phenyl}-1-cyanoethyl]-1,4-oxazepane-2-carboxamide], the IC50 is > 15 nM on human DPP1 enzyme (setting [1]) and > 2.5 nM at DPP1 in HL-60 cells (setting [2]).

Regarding `N#C[C@H](Cc1ccc(-c2cnn([C@@H]3CCOC3)c2)cc1)NC(=O)[C@@H]1CNCCCO1` [Compound D4, (2S)—N-[(1S)-1-cyano-2-(4-{1-[(3R)-oxolan-3-yl]pyrazol-4-yl}phenyl)ethyl]-1,4-oxazepane-2-carboxamide], the values for the IC50 on human DPP1 enzyme (setting [1]) and on DPP1 in HL-60 cells (setting [2]) were > 15 nM and > 2.5 nM, respectively.

As to `N#C[C@H](Cc1ccc(NC(=O)c2csc(-c3cscn3)n2)cc1)NC(=O)[C@@H]1CNCCCO1` [Compound D7, (2S)—N-[(1S)-1-cyano-2-{4-[2-(1,3-thiazol-4-yl)-1,3-thiazole-4-amido]phenyl}ethyl]-1,4-oxazepane-2-carboxamide], the IC50 at human DPP1 enzyme (setting [1]) is > 15 nM; on DPP1 in HL-60 cells (setting [2]), > 2.5 nM.

For `CCc1sc(-c2ccc(C[C@@H](C#N)NC(=O)[C@@H]3CNCCCO3)cc2)nc1-c1cnn(C)c1` [Compound D8, (2S)—N-[(1S)-1-cyano-2-{4-[5-ethyl-4-(1-methylpyrazol-4-yl)-1,3-thiazol-2-yl]phenyl}ethyl]-1,4-oxazepane-2-carboxamide], the values for the IC50 on human DPP1 enzyme (setting [1]) and on DPP1 in HL-60 cells (setting [2]) were > 15 nM and > 2.5 nM, respectively.

Turning to `Cc1sc(-c2ccc(C[C@@H](C#N)NC(=O)[C@@H]3CNCCCO3)cc2)nc1-c1cc[nH]c(=O)c1` [Compound D9, (2S)—N-[(1S)-1-cyano-2-{4-[5-methyl-4-(2-oxo-1H-pyridin-4-yl)-1,3-thiazol-2-yl]phenyl}ethyl]-1,4-oxazepane-2-carboxamide], the IC50 at human DPP1 enzyme (setting [1]) is > 15 nM; on DPP1 in HL-60 cells (setting [2]), > 2.5 nM.

As to `CCCCOCCn1c(=O)oc2ccc(-c3ccc(C[C@@H](C#N)NC(=O)[C@@H]4CNC(C)C(OC)CO4)c(F)c3)cc21` (stereo partly drawn) [Compound E1, (2S)—N-[(1S)-2-{4-[3-(2-butoxyethyl)-2-oxo-1,3-benzoxazol-5-yl]-2-fluorophenyl}-1-cyanoethyl]-6-methoxy-5-methyl-1,4-oxazepane-2-carboxamide], the IC50 at human DPP1 enzyme (setting [1]) was < 5 nM; at DPP1 in HL-60 cells (setting [2]) it was 1 to 2.5 nM.

Take `COC1CO[C@H](C(=O)N[C@H](C#N)Cc2ccc(-c3ccc4c(c3)C3(CC4)CCN(C)CC3)cc2F)CNC1C` (stereo partly drawn) [Compound E6, (2S)—N-[(1S)-1-cyano-2-(2-fluoro-4-{1′-methyl-2,3-dihydrospiro[indene-1,4′-piperidin]-6-yl}phenyl)ethyl]-6-methoxy-5-methyl-1,4-oxazepane-2-carboxamide]: the IC50 is < 5 nM at human DPP1 enzyme (setting [1]) and > 2.5 nM at DPP1 in HL-60 cells (setting [2]).

Take `CO[C@H]1CCO[C@H](C(=O)N[C@H](C#N)Cc2ccc(-c3ccc(C#N)cc3)cc2)CNC1` [Compound F1, (2S,6S)—N-[(1S)-1-cyano-2-{4′-cyano-[1,1′-biphenyl]-4-yl}ethyl]-6-methoxy-1,4-oxazocane-2-carboxamide]: the results for the IC50 at human DPP1 enzyme (setting [1]) and at DPP1 in HL-60 cells (setting [2]) were > 15 nM and > 2.5 nM, respectively.

For the compound `CCCCOCCn1c(=O)oc2ccc(-c3ccc(C[C@@H](C#N)NC(=O)[C@@H]4CNC[C@@H](OC)CCO4)cc3)cc21` [Compound F2, (2S,6S)—N-[(1S)-2-{4-[3-(2-butoxyethyl)-2-oxo-1,3-benzoxazol-5-yl]phenyl}-1-cyanoethyl]-6-methoxy-1,4-oxazocane-2-carboxamide], the values for the IC50 at human DPP1 enzyme (setting [1]) and at DPP1 in HL-60 cells (setting [2]) were > 15 nM and > 2.5 nM, respectively.

For the compound `CO[C@H]1CCO[C@H](C(=O)N[C@H](C#N)Cc2ccc(-c3ccc4oc(=O)n(C)c4c3)s2)CNC1` [Compound F3, (2S,6S)—N-[(1S)-1-cyano-2-[5-(3-methyl-2-oxo-1,3-benzoxazol-5-yl)thiophen-2-yl]ethyl]-6-methoxy-1,4-oxazocane-2-carboxamide], the results for the IC50 on human DPP1 enzyme (setting [1]) and at DPP1 in HL-60 cells (setting [2]) were > 15 nM and > 2.5 nM, respectively.

Take `CO[C@@H]1CCNC[C@@H](C(=O)N[C@H](C#N)Cc2ccc(-c3ccc4cnn(C)c4c3)cc2F)OC1` [Compound H7, (2S,7R)—N-[(1S)-1-cyano-2-[2-fluoro-4-(1-methylindazol-6-yl)phenyl]ethyl]-7-methoxy-1,4-oxazocane-2-carboxamide]: the values for the IC50 at human DPP1 enzyme (setting [1]) and on DPP1 in HL-60 cells (setting [2]) were < 5 nM and < 1 nM, respectively.

For `CO[C@@H]1CNC[C@@H](C(=O)N[C@H](C#N)Cc2ccc(-c3ccc4nnn(C)c4c3)cc2)OC1` [Compound H12-B], the values for the IC50 at human DPP1 enzyme (setting [1]) and at DPP1 in HL-60 cells (setting [2]) were < 5 nM and 1 to 2.5 nM, respectively.

For the compound `N#C[C@H](Cc1ccc(-c2ccc3c(c2)C2(CCN(C4COC4)CC2)COC3)cc1)NC(=O)[C@@H]1CNCCCO1` [Compound I5], the IC50 is 5 to 15 nM on human DPP1 enzyme (setting [1]) and > 2.5 nM at DPP1 in HL-60 cells (setting [2]).

On to `N#C[C@H](Cc1ccc(-c2ccc3c(c2)[C@@]2(CCN(C4COC4)C2)COC3)cc1)NC(=O)[C@@H]1CNCCCO1` [Compound I6], for which the IC50 was 5 to 15 nM on human DPP1 enzyme (setting [1]) and > 2.5 nM on DPP1 in HL-60 cells (setting [2]).

As for `N#C[C@H](Cc1ccc(-c2ccc3c(c2)C2(CCN(C4CC4)CC2)SCC3)cc1)NC(=O)[C@@H]1CNCCCO1` [Compound I7], the IC50 on human DPP1 enzyme (setting [1]) was > 15 nM; on DPP1 in HL-60 cells (setting [2]) it was > 2.5 nM.

Turning to `N#C[C@H](Cc1ccc(-c2ccc3c(c2)[C@@]2(CCCN(C4CCCCC4)C2)CS3)cc1)NC(=O)[C@@H]1CNCCCO1` [Compound I9], the concentration for half-maximal inhibition (IC50) was 5 to 15 nM at human DPP1 enzyme (setting [1]) and > 2.5 nM on DPP1 in HL-60 cells (setting [2]).

`N#C[C@H](Cc1ccc(-c2ccc3c(c2)[C@@]2(CCCN(C4CC4)C2)COC3)cc1)NC(=O)[C@@H]1CNCCCO1` [Compound I12]: the results for the IC50 on human DPP1 enzyme (setting [1]) and on DPP1 in HL-60 cells (setting [2]) were 5 to 15 nM and > 2.5 nM, respectively.

Regarding `N#C[C@H](Cc1ccc(-c2ccc3c(c2)[C@]2(CCCN(c4ccsc4)C2)SC3)cc1)NC(=O)[C@@H]1CNCCCO1` [Compound I13], the results for the IC50 at human DPP1 enzyme (setting [1]) and on DPP1 in HL-60 cells (setting [2]) were > 15 nM and > 2.5 nM, respectively.
